18 compounds from patent publication US20250250264A1, “KIF18A INHIBITOR AND USE THEREOF” (Wuhan Humanwell Innovative Drug Research and Development …, priority 2022, published 2025) can be followed below.

Assay [1] concerns NIH:OVCAR-3 cells. Description: Assay on inhibition of OVCAR3 tumor cell proliferation (CellTiter-Glo). The following applies: 3 days of drug treatment, read-out: IC50 (μM), inhibitory effects of compounds on tumor cell proliferation. Format: cell-based. How it is done:
NIH:OVCAR-3 cells (ATCC, Cat No. HTB-161, purchased from Co-Bier) were seeded into a T75 culture flask and cultured in an RPMI 1640 medium containing 20% FBS for 3 days in preparation for subsequent culturing and seeding into a 96-well plate for the cell proliferation assay.
The OVCAR3 cells were seeded at a density of 3000 cells/100 μL/well into the 96-well cell plate, and then the plate was incubated in an incubator (37° C., 5% CO2) for 18 h. On the second day, drug treatment was started. Serially diluted test compound solutions (each drug starting at a concentration of 10 μM, diluted in DMSO, with a dilution ratio of 1:3, and nine gradient points for each drug) or DMSO (negative control) was added to the medium in the plate at 100 μL/well, and a blank group was set up with only medium, but no seeded cell strains. After the drug addition, the plate was incubated in the incubator for another 3 days (37° C., 5% CO2). On the fourth day, plate detection was performed. To each well, 100 μL of CellTiter-Glo reagent (Promega G9243) was added. The plate was shaken for 5 min and then left to stand at room temperature for 5 min. The chemical luminescence signal value of each well was determined using a microplate reader (PerkinElmer EnVision®2104). Cell proliferation inhibition rate=(1−(compound group−blank group)/(DMSO group−blank group))×100%. Then, the IC50 value of each compound was calculated using the GraphPad Prism 8 software.
A general note: In ATP-based viability assays light output follows the ATP content of the culture.

In assay [2] the target is recombinant protein KIF18A (kinesin domain: aa 1-467) (Homo sapiens (Human), UniProt Q8NI77). Kind of assay: Assay on inhibition of KIF18A enzymatic activity (ADP-Glo). The following applies: KIF18A 80 nM, ATP 80 μM, 3 h at room temperature, ADP-Glo luminescence; read-out: IC50 (μM), inhibitory effects of compounds on KIF18A enzymatic activity. The class given is biochemical. The source says: The recombinant protein KIF18A (kinesin domain: aa 1-467) used in this assay was expressed by the Bac-to-Bac baculovirus expression system from Invitrogen, and the resulting protein was purified for use in this assay (Seki, M. et al. 2003 Nucleic Acids Res.). Quantitative detection of KIF18A enzymatic activity was completed using an ADP-Glo™ kinase assay kit (Promega Inc). Related procedures strictly followed the product instructions, which are briefly described as follows:
The reaction system consisted of a test compound, the recombinant protein KIF18A (aa 1-467), ATP (Promega Inc), and an assay buffer. The test compound was prepared into a 0.5 mM stock solution using DMSO (Sigma Inc) and then serially diluted in DMSO. The assay buffer consisted of an aqueous solution of 15 mM Tris, 10 mM MgCl2 (Sigma Inc), 0.01% Pluronic F-68 (Life Technologies Inc), 1 μM paclitaxel (Cytoskeleton Inc), 30 μg/mL porcine tubulin (Cytoskeleton Inc), and 2% DMSO. The KIF18A protein (final concentration: 80 nM) and the compound at different concentrations (1 μL) were added to the prepared assay buffer (50 μL), and the mixture was incubated at room temperature for 15 min. Then, ATP (final concentration: 80 μM) was added to the reaction mixture, and the resulting mixture was incubated at room temperature for 3 h. After the reaction was completed, 5 μL of the ADP-Glo™ reagent and 2.5 μL of the reaction mixture were added to a 384-well plate (Grenier Inc). The resulting mixture was mixed homogeneously, then sealed by an aluminum foil sealing film, and incubated at room temperature in the dark for 40 min. Finally, 10 μL of the […] was added to each reaction well, and the mixture was incubated at room temperature in the dark for 40 min. After all reactions were completed, the luminescence values of the wells were read on a microplate reader (Molecular Device_SpectraMax Id5), and the inhibition ratios were calculated. The calculation formula for the inhibition rates was as follows: inhibition rate=(1−(compound group−blank group)/(negative control group−blank group))×100%. Then, based on the inhibition rates at different compound concentrations, the IC50 value of the test compound was calculated using the GraphPad Prism 8 software.
(In general: ADP-Glo first removes unused ATP, then detects ADP through luciferase.)

The structures appear in SMILES notation. Where two headings read alike, the source gives them in different places.

Sequence of recombinant protein KIF18A (kinesin domain: aa 1-467) (Q8NI77 1-467): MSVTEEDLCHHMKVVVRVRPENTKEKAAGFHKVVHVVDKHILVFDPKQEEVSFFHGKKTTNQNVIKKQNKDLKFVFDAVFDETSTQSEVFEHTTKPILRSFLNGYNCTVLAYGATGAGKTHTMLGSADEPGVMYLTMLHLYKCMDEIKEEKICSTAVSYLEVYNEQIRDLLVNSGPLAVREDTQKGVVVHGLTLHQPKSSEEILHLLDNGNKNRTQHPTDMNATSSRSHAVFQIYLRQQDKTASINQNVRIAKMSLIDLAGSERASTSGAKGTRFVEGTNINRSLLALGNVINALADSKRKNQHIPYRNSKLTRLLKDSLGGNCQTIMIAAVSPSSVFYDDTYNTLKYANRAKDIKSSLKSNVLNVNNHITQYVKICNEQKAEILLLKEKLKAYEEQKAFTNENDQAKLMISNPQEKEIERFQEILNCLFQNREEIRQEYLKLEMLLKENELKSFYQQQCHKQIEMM
Sequence of recombinant protein KIF18A (kinesin domain: aa 1-467) (P02550 whole entry partner, the tested form may be a part): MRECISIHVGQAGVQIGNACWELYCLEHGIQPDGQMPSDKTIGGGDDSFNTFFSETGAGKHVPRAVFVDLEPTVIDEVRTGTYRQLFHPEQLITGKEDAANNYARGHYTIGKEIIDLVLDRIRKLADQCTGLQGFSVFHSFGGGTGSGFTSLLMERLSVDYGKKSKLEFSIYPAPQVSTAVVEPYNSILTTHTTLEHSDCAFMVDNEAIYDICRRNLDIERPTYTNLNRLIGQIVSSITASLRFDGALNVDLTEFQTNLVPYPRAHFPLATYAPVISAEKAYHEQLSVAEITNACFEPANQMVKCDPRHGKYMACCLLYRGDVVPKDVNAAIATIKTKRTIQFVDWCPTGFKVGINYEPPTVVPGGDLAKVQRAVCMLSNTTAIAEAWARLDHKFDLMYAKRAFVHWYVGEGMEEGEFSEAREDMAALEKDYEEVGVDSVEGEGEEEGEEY
Sequence of recombinant protein KIF18A (kinesin domain: aa 1-467) (P02554 whole entry partner, the tested form may be a part): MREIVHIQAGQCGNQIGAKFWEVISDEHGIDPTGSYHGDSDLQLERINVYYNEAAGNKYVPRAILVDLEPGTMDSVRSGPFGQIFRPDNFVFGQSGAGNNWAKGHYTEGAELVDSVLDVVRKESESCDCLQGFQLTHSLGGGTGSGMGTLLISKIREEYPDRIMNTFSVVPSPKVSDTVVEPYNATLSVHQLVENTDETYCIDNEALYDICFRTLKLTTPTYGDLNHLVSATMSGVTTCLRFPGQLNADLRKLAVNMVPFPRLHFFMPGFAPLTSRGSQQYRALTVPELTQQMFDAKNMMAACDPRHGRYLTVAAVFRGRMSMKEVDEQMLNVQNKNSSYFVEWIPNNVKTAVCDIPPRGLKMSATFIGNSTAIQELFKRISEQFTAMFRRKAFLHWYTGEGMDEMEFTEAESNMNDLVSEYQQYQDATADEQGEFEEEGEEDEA

Consider `Cc1cc(-c2nnc(-c3ccc(NS(=O)(=O)CCO)cc3N3CCC4(CC3)CC4)o2)nc(N2CCO[C@H](C)C2)c1` [Example I-1, (R)-2-Hydroxy-N-(4-(5-(4-methyl-6-(2-methylmorpholino)pyridin-2-yl)-1,3,4-oxadiazol-2-yl)-3-(6-azaspiro[2.5]octan-6-yl)phenyl)ethane-1-sulfonamide], for which the IC50 in assay [1] (Homo sapiens, OVCAR-3, 72 h) worked out at 0.045 µM; in assay [2], 0.033 µM.
The matching figures for `Cc1cc(-c2nnc(-c3ccc(NS(=O)(=O)CCO)cc3N3CCC4(CC3)CC4)o2)nc(N2CCC(F)(F)CC2)n1` [Example I-2, N-(4-(5-(2-(4,4-Difluoropiperidin-1-yl)-6-methylpyrimidin-4-yl)-1,3,4-oxadiazol-2-yl)-3-(6-azaspiro[2.5]octan-6-yl)phenyl)-2-hydroxyethane-1-sulfonamide]: 0.08 µM and 0.002 µM.
`Cc1cc(-c2nnc(-c3ccc(NS(=O)(=O)CCO)cc3N3CCC4(CC3)CC4)o2)nc(N2CC(F)(F)C2)n1` [Example I-3, N-(4-(5-(2-(3,3-Difluoroazetidin-1-yl)-6-methylpyrimidin-4-yl)-1,3,4-oxadiazol-2-yl)-3-(6-azaspiro[2.5]octan-6-yl)phenyl)-2-hydroxyethane-1-sulfonamide]: the IC50 in assay [1] (Homo sapiens, OVCAR-3, 72 h) was 0.051 µM; in assay [2], 0.011 µM.
The matching figures for `Cc1cc(-c2nnc(-c3ccc(NS(=O)(=O)CCO)cc3N3CCC4(CC3)CC4)o2)nc(N2CCC(F)(F)C2)n1` [Example I-5, N-(4-(5-(2-(3,3-Difluoropyrrolidin-1-yl)-6-methylpyrimidin-4-yl)-1,3,4-oxadiazol-2-yl)-3-(6-azaspiro[2.5]octan-6-yl)phenyl)-2-hydroxyethane-1-sulfonamide]: 0.186 µM and 0.007 µM.
In the same order, the values of `Cc1cc(-c2nnc(-c3ccc(NS(=O)(=O)CCO)cc3N3CCC4(CC3)CC4)o2)nc(N2CCCC(F)(F)C2)n1` [Example I-7, N-(4-(5-(2-(3,3-Difluoropiperidin-1-yl)-6-methylpyrimidin-4-yl)-1,3,4-oxadiazol-2-yl)-3-(6-azaspiro[2.5]octan-6-yl)phenyl)-2-hydroxyethane-1-sulfonamide] are 0.073 µM and 0.001 µM.
In the same order, the values of `Cc1cc(-c2nnc(-c3ccc(NS(=O)(=O)CCO)cc3N3CCC4(CC3)CC4)o2)nc(N2CCC(F)CC2)n1` [Example I-8, N-(4-(5-(2-(4-fluoropiperidin-1-yl)-6-methylpyrimidin-4-yl)-1,3,4-oxadiazol-2-yl)-3-(6-azaspiro [2.5]octan-6-yl)phenyl)-2-hydroxyethanesulfonamide] are 0.035 µM and 0.002 µM.
Consider `Cc1cc(-c2nnc(-c3ccc(NS(=O)(=O)CCO)cc3N3CCC4(CC3)CC4)o2)nc(N2CCC3(CC3)C2)n1` [Example I-17, 2-Hydroxy-N-(4-(5-(6-methyl-2-(5-azaspiro[2.4]heptan-5-yl)pyrimidin-4-yl)-1,3,4-oxadiazol-2-yl)-3-(6-azaspiro[2.5]octan-6-yl)phenyl)ethane-1-sulfonamide], for which the IC50 in assay [1] (Homo sapiens, OVCAR-3, 72 h) is 0.56 µM; in assay [2], 0.01 µM.
For `Cc1cc(-c2nnc(-c3ccc(NS(=O)(=O)CCO)cc3N3CCC4(CC3)CC4)o2)nc(OCCC(F)(F)F)n1` [Example I-27, 2-Hydroxy-N-(4-(5-(6-methyl-2-(3,3,3-trifluoropropoxy)pyrimidin-4-yl)-1,3,4-oxadiazol-2-yl)-3-(6-azaspiro[2.5]octan-6-yl)phenyl)ethane-1-sulfonamide], the IC50 in assay [1] (Homo sapiens, OVCAR-3, 72 h) was 0.079 µM; in assay [2], 0.001 µM.
Consider `Cc1cc(-c2nnc(-c3ccc(NS(=O)(=O)[C@H](C)CO)cc3N3CCC4(CC3)CC4)o2)nc(N2CCC(F)(F)CC2)n1` [Example I-40, (R)—N-(4-(5-(2-(4,4-Difluoropiperidin-1-yl)-6-methylpyrimidin-4-yl)-1,3,4-oxadiazol-2-yl)-3-(6-azaspiro[2.5]octan-6-yl)phenyl)-1-hydroxypropane-2-sulfonamide], for which the IC50 in assay [1] (Homo sapiens, OVCAR-3, 72 h) is 0.076 µM; in assay [2] it was 0.011 µM.
With `Cc1cc(-c2nnc(-c3ccc(NS(=O)(=O)CCO)cc3N3CCC4(CC3)CC4)o2)cc(N2CCC(F)(F)CC2)n1` [Example I-52, N-(4-(5-(2-(4,4-Difluoropiperidin-1-yl)-6-methylpyridin-4-yl)-1,3,4-oxadiazol-2-yl)-3-(6-azaspiro[2.5]octan-6-yl)phenyl)-2-hydroxyethane-1-sulfonamide], the figures for the IC50 in assay [1] and in assay [2] were 0.045 µM and 0.001 µM, respectively.
In the case of `Cc1cc(-c2nnc(-c3ccc(NS(=O)(=O)CCO)cc3N3CCC4(CC3)CC4)o2)c(F)c(N2CCC(F)(F)CC2)n1` [Example I-53], in assay [1] (Homo sapiens, OVCAR-3, 72 h), the IC50 was found to be 0.214 µM.
`Cc1cc(-c2nnc(-c3ccc(NS(=O)(=O)CCO)cc3N3CCC4(CC3)CC4)s2)nc(N2CCC(F)(F)CC2)n1` [Example I-77, N-(4-(5-(2-(4,4-Difluoropiperidin-1-yl)-6-methylpyrimidin-4-yl)-1,3,4-thiadiazol-2-yl)-3-(6-azaspiro[2.5]octan-6-yl)phenyl)-2-hydroxyethane-1-sulfonamide]: the IC50 in assay [1] (Homo sapiens, OVCAR-3, 72 h) is 0.12 µM; in assay [2], 0.002 µM.
As to `Cc1cc(-n2cc(-c3ccc(NS(=O)(=O)CCO)cc3N3CCC4(CC3)CC4)cn2)nc(N2CCC(F)(F)CC2)n1` [Example I-81, N-(4-(1-(2-(4,4-Difluoropiperidin-1-yl)-6-methylpyrimidin-4-yl)-1H-pyrazol-4-yl)-3-(6-azaspiro[2.5]octan-6-yl)phenyl)-2-hydroxyethane-1-sulfonamide], the IC50 in assay [1] (Homo sapiens, OVCAR-3, 72 h) is 0.393 µM.
In the case of `Cc1cc(-c2nnc(-c3ccc(NS(=O)(=O)CCO)cc3N3CCC4(CC3)CC4)o2)nc(N2CCC(C(F)(F)F)C2)n1` (centres unmarked) [Example I-98, N-(4-(5-(6-methyl-2-(3-(trifluoromethyl)pyrrolidin-1-yl)pyrimidin-4-yl)-1,3,4-oxadiazol-2-yl)-3-(6-azaspiro [2.5]octan-6-yl)phenyl)-2-hydroxyethane-sulfonamide], the IC50 in assay [2] amounted to 0.018 µM.
With `Cc1cc(-c2nnc(-c3ccc(NS(=O)(=O)CCO)cc3N3CCC4(CC3)CC4)s2)nc(OCCC(F)(F)F)n1` [Example I-99, N-(4-(5-(6-Methyl-2-(3,3,3-trifluoropropoxy)pyrimidin-4-yl)-1,3,4-thiadiazol-2-yl)-3-(6-azaspiro[2.5]octan-6-yl)phenyl)-2-hydroxyethane-1-sulfonamide], the IC50 in assay [1] (Homo sapiens, OVCAR-3, 72 h) came to 0.205 µM.
As for `Cc1cc(-c2nnc(-c3ccc(NS(=O)(=O)CCO)cc3N3CCC4(CC3)CC4)o2)nc(N2CCCC(C(F)(F)F)C2)c1` (centres unmarked) [Example I-103, N-(4-(5-(4-Methyl-6-(3-(trifluoromethyl)piperidin-1-yl)pyridin-2-yl)-1,3,4-oxadiazol-2-yl)-3-(6-azaspiro[2.5]octan-6-yl)phenyl)-2-hydroxyethane-1-sulfonamide], the IC50 in assay [2] stood at 0.012 µM.
Take `Cc1cc(-c2nnc(-c3ccc(NS(=O)(=O)CCO)cc3N3CCC4(CC3)CC4)o2)nc(N2CCC(C(F)(F)F)C2)c1` (centres unmarked) [Example I-104, N-(4-(5-(4-Methyl-6-(3-(trifluoromethyl)pyrrolidin-1-yl)pyridin-2-yl)-1,3,4-oxadiazol-2-yl)-3-(6-azaspiro[2.5]octan-6-yl)phenyl)-2-hydroxyethane-1-sulfonamide]: in assay [2], the IC50 came to 0.013 µM.
Regarding `Cc1cc(-c2cnn(-c3ccc(NS(=O)(=O)CCO)cc3N3CCC(C)CC3)c2)nc(N2CCC(F)(F)CC2)n1` [Example I-125, N-(4-(4-(2-(4,4-Difluoropiperidin-1-yl)-6-methylpyrimidin-4-yl)-1H-pyrazol-1-yl)-3-(4-methylpiperidin-1-yl)phenyl)-2-hydroxyethane-1-sulfonamide], the IC50 in assay [2] was 0.005 µM.
